IC50 data for 30 molecules are collected here from patent US20100076015A1, “Aminopyridine Derivatives” (VANTIA LIMITED, priority 2008, published 2010).

Each structure is given as a SMILES string.

The target in the test is T1, Human KLK1 (Homo sapiens, UniProt P06870).
T1 construct: purchased Callbiochem (Calbiochem)
T1 sequence (P06870 25-262): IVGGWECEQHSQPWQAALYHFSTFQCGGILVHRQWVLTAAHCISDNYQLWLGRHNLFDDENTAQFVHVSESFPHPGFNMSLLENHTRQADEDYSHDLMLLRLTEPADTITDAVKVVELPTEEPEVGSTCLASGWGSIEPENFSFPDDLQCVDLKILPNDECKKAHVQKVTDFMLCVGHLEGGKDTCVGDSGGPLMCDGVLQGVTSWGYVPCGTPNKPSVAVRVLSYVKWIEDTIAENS
The test is described as follows: Determination of the IC50 for KLK1 (fluorogenic substrate H-DVal-Leu-Arg-AFC). In kind it is biochemical. Particulars: 37° C. The method, boiled down:
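Test compound at various concentrations was incubated with human KLK1 and the fluorogenic substrate H-DVal-Leu-Arg-AFC at 37° C. Absorbance change at 410 nm gave the initial reaction rate, from which IC50 was obtained.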
In turn, `Nc1ccc(CNC(=O)[C@H](Cc2cc(F)c(F)cc2F)NC(=O)c2cc3ccccc3[nH]2)cn1` [Example 324, 1H-Indole-2-carboxylic acid [(S)-1-[(6-amino-pyridin-3-ylmethyl)-carbamoyl]-2-(2,4,5-trifluoro-phenyl)-ethyl]-amide] showed an IC50 of 68.4 nM.

`Nc1ccc(CNC(=O)[C@H](Cc2ccc(F)c(F)c2)NC(=O)c2cc3ccccc3[nH]2)cn1` [Example 325, 1H-Indole-2-carboxylic acid [(S)-1-[(6-amino-pyridin-3-ylmethyl)-carbamoyl]-2-(3,4-difluoro-phenyl)-ethyl]-amide] came in with an IC50 of 21.3 nM.

In the case of `Nc1ccc(CNC(=O)[C@H](Cc2ccc(F)c(F)c2)NC(=O)c2cc3cc(F)ccc3[nH]2)cn1` [Example 326, 5-Fluoro-1H-indole-2-carboxylic acid [(S)-1-[(6-amino-pyridin-3-ylmethyl)-carbamoyl]-2-(3,4-difluoro-phenyl)-ethyl]-amide], the IC50 amounted to 25.4 nM.

As for `COc1ccc2[nH]c(C(=O)N[C@@H](Cc3ccc(F)c(F)c3)C(=O)NCc3ccc(N)nc3)cc2c1` [Example 327, 5-Methoxy-1H-indole-2-carboxylic acid [(S)-1-[(6-amino-pyridin-3-ylmethyl)-carbamoyl]-2-(3,4-difluoro-phenyl)-ethyl]-amide], half-maximal inhibition (IC50) was put at 17.8 nM.

The molecule `Nc1ccc(CNC(=O)[C@H](Cc2ccc(F)c(F)c2)NC(=O)c2nc3ccccc3[nH]2)cn1` [Example 328, 1H-Benzoimidazole-2-carboxylic acid [(S)-1-[(6-amino-pyridin-3-ylmethyl)-carbamoyl]-2-(3,4-difluoro-phenyl)-ethyl]-amide] registered an IC50 of 179 nM.

Take `Nc1ccc(CNC(=O)[C@H](Cc2c(F)c(F)c(F)c(F)c2F)NC(=O)c2cc3ccccc3[nH]2)cn1` [Example 329, 1H-Indole-2-carboxylic acid {(S)-1-[(6-amino-pyridin-3-ylmethyl)-carbamoyl]-2-pentafluorophenyl-ethyl}-amide]: the IC50 was determined as 299 nM.

Molecule `Nc1ccc(CNC(=O)[C@H](Cc2ccc(F)cc2)NC(=O)c2cc3ccccc3[nH]2)cn1` [Example 330, 1H-Indole-2-carboxylic acid [(S)-1-[(6-amino-pyridin-3-ylmethyl)-carbamoyl]-2-(4-fluoro-phenyl)-ethyl]-amide] showed an IC50 of 23.6 nM.

`Nc1ccc(CNC(=O)[C@H](Cc2ccc(F)cc2)NC(=O)c2cc3cc(F)ccc3[nH]2)cn1` [Example 331, 5-Fluoro-1H-indole-2-carboxylic acid [(S)-1-[(6-amino-pyridin-3-ylmethyl)-carbamoyl]-2-(4-fluoro-phenyl)-ethyl]-amide] yielded an IC50 of 32 nM.

`COc1ccc2[nH]c(C(=O)N[C@@H](Cc3ccc(F)cc3)C(=O)NCc3ccc(N)nc3)cc2c1` [Example 332, 5-Methoxy-1H-indole-2-carboxylic acid [(S)-1-[(6-amino-pyridin-3-ylmethyl)-carbamoyl]-2-(4-fluoro-phenyl)-ethyl]-amide] yielded an IC50 of 21.5 nM.

Regarding `Nc1ccc(CNC(=O)[C@H](Cc2ccc(F)cc2)NC(=O)c2nc3ccccc3[nH]2)cn1` [Example 333, 1H-Benzoimidazole-2-carboxylic acid [(S)-1-[(6-amino-pyridin-3-ylmethyl)-carbamoyl]-2-(4-fluoro-phenyl)-ethyl]-amide], the IC50 is 184 nM.

With `COc1ccc(C[C@H](NC(=O)c2cc3ccccc3[nH]2)C(=O)NCc2ccc(N)nc2)cc1` [Example 334, 1H-Indole-2-carboxylic acid [(S)-1-[(6-amino-pyridin-3-ylmethyl)-carbamoyl]-2-(4-methoxy-phenyl)-ethyl]-amide], it took 235 nM to reach half-maximal inhibition (IC50).

Regarding `Nc1ccc(CNC(=O)[C@H](Cc2csc3ccccc23)NC(=O)c2cc3ccccc3[nH]2)cn1` [Example 335, 1H-Indole-2-carboxylic acid {(S)-1-[(6-amino-pyridin-3-ylmethyl)-carbamoyl]-2-benzo[b]thiophen-3-yl-ethyl}-amide], half-maximal inhibition (IC50) required 15.8 nM.

In the case of `Nc1ccc(CNC(=O)[C@H](CC2CCCCC2)NC(=O)c2cc3ccccc3[nH]2)cn1` [Example 338, 1H-Indole-2-carboxylic acid {(S)-1-[(6-amino-pyridin-3-ylmethyl)-carbamoyl]-2-cyclohexyl-ethyl}-amide], inhibition was half-maximal at 881 nM (IC50).

In turn, `CCC(C)[C@H](NC)C(=O)N[C@@H](CC1CCCCC1)C(=O)NCc1ccc(N)nc1` (stereo partly drawn) [Example 339, (S)-3-Methyl-2-methylamino-pentanoic acid {(S)-1-[(6-amino-pyridin-3-ylmethyl)-carbamoyl]-2-cyclohexyl-ethyl}-amide] displayed an IC50 of 39.8 nM.

As to `CN[C@@H](C(=O)N[C@@H](Cc1cccc(Cl)c1)C(=O)NCc1ccc(N)nc1)C(C)C` [Example 341, (R)—N-[(S)-1-[(6-Amino-pyridin-3-ylmethyl)-carbamoyl]-2-(3-chloro-phenyl)-ethyl]-3-methyl-2-methylamino-butyramide], the IC50 came to 2.2 nM.

Consider `CN[C@H](Cc1ccccc1)C(=O)N[C@@H](Cc1cccc(Cl)c1)C(=O)NCc1ccc(N)nc1` [Example 342, (R)—N-[(S)-1-[(6-Amino-pyridin-3-ylmethyl)-carbamoyl]-2-(3-chloro-phenyl)-ethyl]-2-methylamino-3-phenyl-propionamide], for which 2.7 nM corresponded to half-maximal inhibition (IC50).

Regarding `C[C@@H](C(=O)N[C@@H](Cc1ccc(F)c(F)c1)C(=O)NCc1ccc(N)nc1)N(C)CC1CCCCC1` [Example 343, (S)—N-[(S)-1-[(6-Amino-pyridin-3-ylmethyl)-carbamoyl]-2-(3,4-difluoro-phenyl)-ethyl]-2-(cyclohexylmethyl-methyl-amino)-propionamide], 91 nM corresponded to half-maximal inhibition (IC50).

Molecule `C[C@@H](C(=O)N[C@@H](Cc1ccc(F)c(F)c1)C(=O)NCc1ccc(N)nc1)N(C)C` [Example 344, (S)—N-[(S)-1-[(6-Amino-pyridin-3-ylmethyl)-carbamoyl]-2-(3,4-difluoro-phenyl)-ethyl]-2-dimethylamino-propionamide] gave an IC50 of 21.3 nM.

With `CCN(C)[C@@H](C)C(=O)N[C@@H](Cc1ccc(F)c(F)c1)C(=O)NCc1ccc(N)nc1` [Example 345, (S)—N-[(S)-1-[(6-Amino-pyridin-3-ylmethyl)-carbamoyl]-2-(3,4-difluoro-phenyl)-ethyl]-2-(ethyl-methyl-amino)-propionamide], the midpoint of inhibition, the IC50, lay at 7.7 nM.

With `CCCN(C)[C@@H](C)C(=O)N[C@@H](Cc1ccc(F)c(F)c1)C(=O)NCc1ccc(N)nc1` [Example 346, (S)—N-[(S)-1-[(6-Amino-pyridin-3-ylmethyl)-carbamoyl]-2-(3,4-difluoro-phenyl)-ethyl]-2-(methyl-propyl-amino)-propionamide], inhibition was half-maximal at 21.3 nM (IC50).

`CCCCN(C)[C@@H](C)C(=O)N[C@@H](Cc1ccc(F)c(F)c1)C(=O)NCc1ccc(N)nc1` [Example 347, (S)—N-[(S)-1-[(6-Amino-pyridin-3-ylmethyl)-carbamoyl]-2-(3,4-difluoro-phenyl)-ethyl]-2-(butyl-methyl-amino)-propionamide] displayed an IC50 of 24.5 nM.

For the molecule `CC(C)[C@@H](C(=O)N[C@@H](Cc1ccc(F)c(F)c1)C(=O)NCc1ccc(N)nc1)N(C)C(C)C` [Example 348, (S)—N-[(S)-1-[(6-Amino-pyridin-3-ylmethyl)-carbamoyl]-2-(3,4-difluoro-phenyl)-ethyl]-2-(isopropyl-methyl-amino)-3-methyl-butyramide], the IC50 amounted to 11.1 nM.

In turn, `CCC(C)[C@@H](C(=O)N[C@@H](Cc1ccc(F)c(F)c1)C(=O)NCc1ccc(N)nc1)N(C)C(C)C` (stereo partly drawn) [Example 349, (S)-2-(Isopropyl-methyl-amino)-3-methyl-pentanoic acid [(S)-1-[(6-amino-pyridin-3-ylmethyl)-carbamoyl]-2-(3,4-difluoro-phenyl)-ethyl]-amide] came in with an IC50 of 7.8 nM.

With `CC(C)N(C(C)C)[C@@H](C)C(=O)N[C@@H](Cc1ccc(F)c(F)c1)C(=O)NCc1ccc(N)nc1` [Example 350, (S)—N-[(S)-1-[(6-Amino-pyridin-3-ylmethyl)-carbamoyl]-2-(3,4-difluoro-phenyl)-ethyl]-2-diisopropylamino-propionamide], the IC50 was 28.5 nM.

For `CN(C)[C@@H](Cc1ccccc1)C(=O)N[C@@H](Cc1ccc(F)c(F)c1)C(=O)NCc1ccc(N)nc1` [Example 351, (S)—N-[(S)-1-[(6-Amino-pyridin-3-ylmethyl)-carbamoyl]-2-(3,4-difluoro-phenyl)-ethyl]-2-dimethylamino-3-phenyl-propionamide], the half-inhibitory concentration (IC50) is 8.8 nM.

Consider `CCN(C)[C@@H](Cc1ccccc1)C(=O)N[C@@H](Cc1ccc(F)c(F)c1)C(=O)NCc1ccc(N)nc1` [Example 352, (S)—N-[(S)-1-[(6-Amino-pyridin-3-ylmethyl)-carbamoyl]-2-(3,4-difluoro-phenyl)-ethyl]-2-(ethyl-methyl-amino)-3-phenyl-propionamide], for which the IC50 came out at 13.7 nM.

Take `CCC(C)[C@@H](C(=O)N[C@@H](Cc1ccc(F)c(F)c1)C(=O)NCc1ccc(N)nc1)N(C)C(C)C` (stereo partly drawn) [Example 353, (S)-2-(Isopropyl-methyl-amino)-3-methyl-pentanoic acid [(S)-1-[(6-amino-pyridin-3-ylmethyl)-carbamoyl]-2-(3,4-difluoro-phenyl)-ethyl]-amide]: the IC50 was 7.8 nM.

For the molecule `CC(C(=O)N[C@@H](Cc1ccc(F)c(F)c1)C(=O)NCc1ccc(N)nc1)N1CCCCC1` (stereo partly drawn) [Example 354, N-[(S)-1-[(6-Amino-pyridin-3-ylmethyl)-carbamoyl]-2-(3,4-difluoro-phenyl)-ethyl]-2-piperidin-1-yl-propionamide], the half-maximal inhibitory concentration (IC50) was 11.6 nM.

Molecule `C[C@H](C(=O)N[C@@H](Cc1ccc(F)c(F)c1)C(=O)NCc1ccc(N)nc1)N1CCCC1` [Example 356, (R)—N-[(S)-1-[(6-Amino-pyridin-3-ylmethyl)-carbamoyl]-2-(3,4-difluoro-phenyl)-ethyl]-2-pyrrolidin-1-yl-propionamide] had an IC50 of 3.8 nM.

Consider `C[C@@H](C(=O)N[C@@H](Cc1ccc(F)c(F)c1)C(=O)NCc1ccc(N)nc1)N1CCCC1` [Example 357, (S)—N-[(S)-1-[(6-Amino-pyridin-3-ylmethyl)-carbamoyl]-2-(3,4-difluoro-phenyl)-ethyl]-2-pyrrolidin-1-yl-propionamide], for which inhibition was half-maximal at 3 nM (IC50).

What is called IC50 is the midpoint of a concentration-inhibition curve.
